Where no end group is shown, it is not given here.
Tests used:
HaCaT cells = test: MTT cytotoxicity in HaCaT cells; format: cell-based, human; conditions: for toxicity to HaCaT cells at tested concentration and exposure time: concentrations used in invasion studies (Fig. S1)
Protocol: (§1) MTT (3-(4,5-dimethylthiazol-2-yl)-2,5-diphenyl tetrazolium bromide) assay was employed to analyze the cytotoxicity of peptides and geldanamycin to the cells. 5 × 10^5 cells were seeded in a 96 flat bottom well plate and incubated for 2.5 or 24 h at 37°C with 5% CO2. The cells were then treated with increasing concentration (0 to 200 µM) of peptides or geldanamycin for 24 h. After the incubation, 10 μl of the MTT labelling reagent is added to each well to attain a final concentration 0.5 mg/ml, followed by 4 h incubation. Metabolically active cells convert the yellow tetrazolium salt to purple formazan crystals, which were solubilized using the solubilization solution (DMSO) and measured for absorbance at λmax/λref–570/690 nm (Saising et al. [2018]).

[1] = test system: F-actin levels in N/TERT-1 cells; test: F-actin measurement (ActinGreen 488 fluorescence) in N/TERT-1 cells; format: cell-based, human; conditions: L15 20 µM, L13 30 µM, geldanamycin 5 µM; 1.5 h; relative to control
Protocol: (§2) About 5 × 10^4 cells were seeded in black flat bottom 96 well cell culture microplate (Greiner, Germany) and incubated overnight. The cells were then incubated with peptides or geldanamycin for 1.5 h. After incubation, the cells were washed, permeabilised with 0.1% (v/v) Triton X-100 and stained with ActinGreen™ 488 ReadyProbes® (Thermo Fischer, Germany) for 30 min. After the staining, the cells were washed and measure for its fluorescence at Excitation/Emission: 495/518 nm (Luqman et al. [2020]).

Hsp90α = target: T1, Hsp90α (Homo sapiens, UniProt P07900); format: binding; conditions: dot blot, 2 µg blotted on membrane, 20 µg recombinant Hsp90α at 4°C overnight, α-Hsp90α immunodetection
T1 construct: purchased Abcam
Protocol: Two µg of each peptide was blotted (dot blot) directly on PDV nitrocellulose membrane and blocked with ROTI®Block (Carl Roth, Germany). After washing, the membrane was then incubated with 20 μg of recombinant Hsp90α (Abcam)/Lpl1-his protein at 4°C overnight. In case of interaction studies with Hsp90α, α-Hsp90α (produced in mouse, Abcam) was used as the primary antibody and for interaction studies with Lpl1-his, Anti-6X His tag antibody (also produced in mouse, Sigma-Aldrich, Germany) was used. Alkaline phosphatase conjugated goat-α-mouse IgG (Sigma-Aldrich, Germany) served as the secondary antibody. Detection was done using BCIP®/NBT solution (Sigma, Germany). Lpl1-his was isolated and purified as described in our previous paper (Tribelli et al. [2020]).

[2] = test system: F-actin levels in HaCaT cells; test: F-actin measurement (ActinGreen 488 fluorescence) in HaCaT cells; format: cell-based, human; conditions: 35 µg/ml peptide (L15 20 µM, L13 30 µM), geldanamycin 5 µM; 1.5 h; ActinGreen 488 fluorescence relative to control
Protocol: as §2

N/TERT-1 cells = test: Cytotoxicity in N/TERT-1 cells at tested concentration; format: cell-based, human; conditions: concentrations used in invasion studies (Fig. S1)
Protocol: as §1

Staphylococcus aureus = test: Bacterial growth kinetics; format: cell-based; conditions: OD578 every 1 h for 24 h, 37°C, TSB
Protocol: Staphylococcus aureus precultured in TSB overnight were inoculated to OD∼0.01 into a 48 well plate and L15 and L13 were added to study the effect of peptides on bacterial growth using Varioskan LUX Multimode Microplate Reader. With this instrument, a kinetic measurement of OD578 nm was obtained every 1 h for a total of 24 h, at 37°C with continuous shaking.

Solubility in PBS = format: physicochemical; conditions: qualitative statement
[3] = test system: S. aureus USA300 invasion into N/TERT-1 cells; test: S. aureus USA300 invasion into N/TERT-1 keratinocytes; format: cell-based, human; conditions: pretreatment with L15 20 µM, L13 30 µM, geldanamycin 5 µM or α-Hsp90α antibody
Protocol: The invasion protocol was adapted from our previous papers (Nguyen et al. [2015], Tribelli et al. [2020]). About 5 × 10^5 Keratinocytes were seeded in a 24 well plate (Greiner, Frickenhausen, Germany) to attain a monolayer of ∼10^6 cells/well. Staphylococcusaureus was grown overnight at 37°C, centrifuged and suspended in invasion medium (DMEM with 10% FBS for HaCaT and K-SFM for NTERT-1 cells). The adherent keratinocytes were washed with PBS and supplemented with invasion medium followed by treatment with 20 µM of L15, 30 µM of L13, or 5 µM geldanamycin (Sigma-Aldrich, Germany) or monoclonal antibodies specific against Hsp90α (α‐Hsp90α, Abcam) for 1 h. After 1 h, 100 µl of bacterial suspension was added to each well to attain a MOI (multiplicity of infection) of 30 and incubated with cells for 1.5 h. Subsequently, the extracellular bacteria were killed with treatment of 2.5 μg/ml lysostaphin (Sigma-Aldrich, Germany) for 1.5 h. The cells were then washed, lysed, mechanically detached by scraping, diluted, and enumerated on TSA (Tryptic Soy Agar) plates to quantify the intracellular bacteria.

[4] = test system: phagocytosis by primary human CD14+ monocytes; test: Phagocytosis of S. aureus USA300 by CD14+ monocytes; format: cell-based; conditions: L15 20 µM, L13 30 µM, geldanamycin 5 µM, 60 min preincubation; MOI 30, 90 min; n = 4 donors; SEM
Protocol: Peripheral Blood Mononuclear cells (PBMCs) were isolated by density gradient centrifugation following the previous study (Nguyen et al. [2022]). From the pool of PBMCs, monocytes were isolated by positive selection with anti-human CD14 microbeads (Miltenyi Biotech, Bergisch-Gladbach, Germany) following a previously reported protocol (Nguyen et al. [2022]). The purity was analysed by flow cytometry on a BD Accuri C6 (BD Biosciences, Heidelberg, Germany) with anti-human CD14-FITC, CD45-PE and propidium iodide (BD Biosciences, Heidelberg, Germany) and ranged from 85% to 98%.
For the phagocytosis, 10^6 CD14^+ monocytes were seeded in 1 ml of medium (RPMI supplemented with L-Glutamine and 10% FCS) in a 12 well plate (Greiner, Germany). The cells were incubated with 20 µM of L15, 30 µM of L13, or 5 µM of Geldanamycin for 60 min at 37°C and 5% CO2 before addition of bacteria. For the phagocytosis assay, bacterial cells were resuspended in 100 µl RPMI medium at MOI of 30 and incubated with monocytes for 90 min. The cells were washed once with PBS and 0.5 ml of medium supplemented with 2.5 µg/ml of Lysostaphin was added for 90 min to remove the extracellular bacteria. Then, monocytes were washed twice with PBS and resuspended in 0.5 ml of milliQ dH2O. The cells were scraped, and the lysed solution was transferred into a new 1.5 ml Eppendorf tube for a 5 min sonication (frequency 80, power 100) at room temperature to prevent the bacterial cell clumping by using ultrasonic water bath Elmasonic P (Elma Schmidbauer Gmb, Singen, Germany). About 10 µl fractions of undiluted, 10^−1, 10^−2, and 10^−3 dilutions were inoculated on tryptic soy agar (TSA) plates and incubated overnight at 37°C. The numbers of internalized bacteria were determined based on the manual counting of bacterial colony forming units (cfu) recovered on the agar plates.

Row | Sequence | toxicity to HaCaT cells at tested concentration and exposure time (HaCaT cells) | relative F-actin content in N/TERT-1 cells [1] | Interaction with Hsp90α (Hsp90α) | Relative F-actin level in HaCaT [2] | toxicity to N/TERT-1 cells at tested concentration and exposure time (N/TERT-1 cells) | effect on growth of S. aureus (Staphylococcus aureus) | solubility in PBS (Solubility in PBS) | invasion of S. aureus USA300 into N/TERT-1 cells [3] | decrease of phagocytosis of S. aureus into CD14+ monocytes [4] | percentage of viable cells, HaCaT, 1 µM (HaCaT cells; MTT, 24 h, 1 µM) | percentage of viable cells, HaCaT, 200 µM (HaCaT cells; MTT, 24 h, 200 µM)
1 | TAKGHYFVTTFYRNG [L15] | neither inhibit the viability of host cells | 0.9 ± 0.02 | Yes | 0.83 ± 0.04 | neither inhibit the viability of host cells | did not detect any effect on growth | better soluble | inhibits the invasion | about 22.6 ± 7.67% |  | 
2 | GHYFVTTFY [L13] | neither inhibit the viability of host cells | 0.81 ± 0.03 | Yes | 0.87 ± 0.03 | neither inhibit the viability of host cells | did not detect any effect on growth | poor solubility in PBS | inhibits the invasion | about 62.0 ± 6.80% | 103.05 ± 10.06% | 83.79 ± 11.13%
